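Where inhibition never reached the appropriate level, the endpoint shown equals the highest concentration tested. Otherwise, values were interpolated linearly from a five-concentration, 48-hour dose response in 96-well plates. GI50 is the concentration that inhibits growth by half.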 Calls of active or inactive are those of the source. No stated cut-off is given here; in the data, active = GI50 up to about 1.1 µM and inactive = higher.
What was measured:
Experiment in all cases: growth of human tumour cells (NCI), 48 h
[1] = system: DMS-273
[2] = system: HOP-18
[3] = system: MOLT-4
[4] = system: HCT-116
[5] = system: SN12C
[6] = system: U-251
[7] = system: K562
[8] = system: SW-620
[9] = system: SF-295
[10] = system: EKVX
[11] = system: SK-MEL-28
[12] = system: UACC-62
[13] = system: HOP-92
[14] = system: SNB-78
[15] = system: ACHN
[16] = system: Malme-3M
[17] = system: IGROV-1
[18] = system: HT-29
[19] = system: OVCAR-3
[20] = system: OVCAR-4
[21] = system: KM-20L2
[22] = system: M14
[23] = system: RPMI-8226
[24] = system: SF-539
[25] = system: LXFL 529
[26] = system: DMS-114
[27] = system: CCRF-CEM
[28] = system: SK-MEL-5
[29] = system: 786-0
[30] = system: NCI-H522
[31] = system: COLO 205
[32] = system: UO-31
[33] = system: XF498
[34] = system: OVCAR-5
[35] = system: OVCAR-8
[36] = system: SNB-19
[37] = system: TK-10
[38] = system: NCI-H226
[39] = system: SNB-75
[40] = system: LOX IMVI
[41] = system: HOP-62
[42] = system: KM12
[43] = system: HL-60
[44] = system: NCI-H460
[45] = system: A498
[46] = system: CAKI-1
[47] = system: SF-268
[48] = system: RXF 393
[49] = system: RXF 631
[50] = system: DLD-1
[51] = system: HCT-15
[52] = system: A549
[53] = system: NCI-H23
[54] = system: UACC-257

**Q.** How did the GI50 [1] turn out when `COc1cc(/C=C/c2ccncc2)cc(OC)c1OC` was run?
**A.** 96.6 µM (inactive)

**Q.** And the GI50 [2]?
**A.** 70.8 µM (inactive)

**Q.** What about the GI50 [3] of the same compound?
**A.** 65.8 µM (inactive)

**Q.** What about the GI50 [4] of the same compound?
**A.** > 100 µM (inactive)

**Q.** And the GI50 [5]?
**A.** 96.2 µM (inactive)

**Q.** What about the GI50 [6] of the same compound?
**A.** > 100 µM (inactive)

**Q.** What about the GI50 [7] of the same compound?
**A.** 52.7 µM (inactive)

**Q.** And the GI50 [8]?
**A.** > 100 µM (inactive)

**Q.** What about the GI50 [9] of the same compound?
**A.** > 100 µM (inactive)

**Q.** And the GI50 [10]?
**A.** 13.1 µM (inactive)

**Q.** And the GI50 [11]?
**A.** > 100 µM (inactive)

**Q.** And the GI50 [12]?
**A.** 67.1 µM (inactive)

**Q.** What about the GI50 [13] of the same compound?
**A.** 29.9 µM (inactive)

**Q.** And the GI50 [14]?
**A.** 96.2 µM (inactive)

**Q.** And the GI50 [15]?
**A.** > 100 µM (inactive)

**Q.** And the GI50 [16]?
**A.** > 100 µM (inactive)

**Q.** What about the GI50 [17] of the same compound?
**A.** 74.6 µM (inactive)

**Q.** And the GI50 [18]?
**A.** 64.3 µM (inactive)

**Q.** And the GI50 [19]?
**A.** 94.2 µM (inactive)

**Q.** What about the GI50 [20] of the same compound?
**A.** 76.9 µM (inactive)

**Q.** And the GI50 [21]?
**A.** 65.5 µM (inactive)

**Q.** And the GI50 [22]?
**A.** > 100 µM (inactive)

**Q.** And the GI50 [23]?
**A.** 52.4 µM (inactive)

**Q.** What about the GI50 [24] of the same compound?
**A.** > 100 µM (inactive)

**Q.** And the GI50 [25]?
**A.** 55 µM (inactive)

**Q.** And the GI50 [26]?
**A.** > 100 µM (inactive)

**Q.** What about the GI50 [27] of the same compound?
**A.** 42.9 µM (inactive)

**Q.** And the GI50 [28]?
**A.** 63.2 µM (inactive)

**Q.** And the GI50 [29]?
**A.** 72.4 µM (inactive)

**Q.** What about the GI50 [30] of the same compound?
**A.** 32.3 µM (inactive)

**Q.** And the GI50 [31]?
**A.** > 100 µM (inactive)

**Q.** What about the GI50 [32] of the same compound?
**A.** 24.4 µM (inactive)

**Q.** What about the GI50 [33] of the same compound?
**A.** 22.4 µM (inactive)

**Q.** What about the GI50 [34] of the same compound?
**A.** 38.8 µM (inactive)

**Q.** And the GI50 [35]?
**A.** > 100 µM (inactive)

**Q.** What about the GI50 [36] of the same compound?
**A.** > 100 µM (inactive)

**Q.** And the GI50 [37]?
**A.** 41 µM (inactive)

**Q.** And the GI50 [38]?
**A.** > 100 µM (inactive)

**Q.** What about the GI50 [39] of the same compound?
**A.** 39.2 µM (inactive)

**Q.** What about the GI50 [40] of the same compound?
**A.** 72.4 µM (inactive)

**Q.** What about the GI50 [41] of the same compound?
**A.** 53.6 µM (inactive)

**Q.** What about the GI50 [42] of the same compound?
**A.** > 100 µM (inactive)

**Q.** What about the GI50 [43] of the same compound?
**A.** 24.6 µM (inactive)

**Q.** What about the GI50 [44] of the same compound?
**A.** > 100 µM (inactive)

**Q.** And the GI50 [45]?
**A.** 30.5 µM (inactive)

**Q.** And the GI50 [46]?
**A.** 49 µM (inactive)

**Q.** What about the GI50 [47] of the same compound?
**A.** > 100 µM (inactive)

**Q.** What about the GI50 [48] of the same compound?
**A.** 26.4 µM (inactive)

**Q.** What about the GI50 [49] of the same compound?
**A.** 31.6 µM (inactive)

**Q.** And the GI50 [50]?
**A.** > 100 µM (inactive)

**Q.** What about the GI50 [51] of the same compound?
**A.** 49.4 µM

**Q.** What about the GI50 [52] of the same compound?
**A.** > 100 µM (inactive)

**Q.** What about the GI50 [53] of the same compound?
**A.** > 100 µM (inactive)

**Q.** What about the GI50 [54] of the same compound?
**A.** > 100 µM (inactive)

From ChEMBL document CHEMBL1201862, “PubChem BioAssay data set” (2004)
